The values that follow are results of earlier work, collected in PMC12443862, “The second life of Citrus bergamia: bioavailability analysis of a new formulation using waste-based microencapsulation as a valuable source of bioactive compounds” (Pharmacological Reports, 2025).

On the set-up of the series: method as in PMID 25200135. The settings on record: hesperidin micronization (5.1 μm).

Molecules are shown by their SMILES.

For the compound `COc1ccc([C@@H]2CC(=O)c3c(O)cc(O[C@@H]4O[C@H](CO[C@@H]5O[C@@H](C)[C@H](O)[C@@H](O)[C@H]5O)[C@@H](O)[C@H](O)[C@H]4O)cc3O2)cc1O` [hesperidin], the “Increase of flavanone's bioavailability compared to conventional hesperidin (32.8 μm)” value is listed as 2 fold.
